# Results as given in patent US20210130617A1, “COLORING COMPOSITION, FILM, COLOR FILTER, METHOD FOR MANUFACTURING COLOR FILTER, SOLID-STATE IMAGING ELEMENT, AND IMAGE DISPLAY DEVICE” (FUJIFILM Corporation, priority 2018, published 2021).
# How the values were obtained:
# [1] = Solubility in PGMEA at 25° C. (visual check of insoluble matters); format: physicochemical
# Source text: The evaluation standard is as follows.
# [2] = Maximum absorption wavelength in chloroform (Cary 5000 spectrophotometer); format: physicochemical; conditions: wavelength range 400 to 800 nm
# Description: In addition, the maximum absorption wavelength was obtained by dissolving 50 mg of each compound in 200 mL of chloroform, adding chloroform to 2 mL of this solution so as to be 200 mL, and measuring the absorbance of the solution in a wavelength range of 400 to 800 nm using Cary 5000 UV-Vis-NIR spectrophotometer (manufactured by Agilent Technologies, Inc.).
Solubility [1],Maximum absorption wavelength [2] [nm],"solubility at 15 min ([1]; organic solvent or mixture, thermodynamic from solid) [mg/mL]",Structure (SMILES)
A (solubility is 20 mg/L or less.),670,–,O=C1C(=C2C=CC(=[N+](c3ccccc3)c3cccc4ccccc34)C=C2O)C([O-])=C1c1ccc(N(c2ccccc2)c2cccc3ccccc23)cc1O [SQ-1]
A (solubility is 20 mg/L or less.),665,–,O=C1C(=C2C=CC(=[N+](c3ccc(Cl)cc3)c3cccc4ccccc34)C=C2O)C([O-])=C1c1ccc(N(c2ccc(Cl)cc2)c2cccc3ccccc23)cc1O [SQ-12]
A (solubility is 20 mg/L or less.),660,–,N#Cc1ccc(N(c2ccc(C3=C([O-])C(=C4C=CC(=[N+](c5ccc(C#N)cc5)c5cccc6ccccc56)C=C4O)C3=O)c(O)c2)c2cccc3ccccc23)cc1 [SQ-16]
A (solubility is 20 mg/L or less.),675,–,CSc1ccc(N(c2ccc(C3=C([O-])C(=C4C=CC(=[N+](c5ccc(SC)cc5)c5cccc6ccccc56)C=C4O)C3=O)c(O)c2)c2cccc3ccccc23)cc1 [SQ-17]
A (solubility is 20 mg/L or less.),685,–,CN(C)c1ccc(N(c2ccc(C3=C([O-])C(=C4C=CC(=[N+](c5ccc(N(C)C)cc5)c5cccc6ccccc56)C=C4O)C3=O)c(O)c2)c2cccc3ccccc23)cc1 [SQ-18]
A (solubility is 20 mg/L or less.),670,–,CC(=O)Nc1ccc(N(c2ccc(C3=C([O-])C(=C4C=CC(=[N+](c5ccc(NC(C)=O)cc5)c5cccc6ccccc56)C=C4O)C3=O)c(O)c2)c2cccc3ccccc23)cc1 [SQ-19]
A (solubility is 20 mg/L or less.),680,–,O=C1C(=C2C=CC(=[N+](c3cccc4ccccc34)c3cccc4ccccc34)C=C2O)C([O-])=C1c1ccc(N(c2cccc3ccccc23)c2cccc3ccccc23)cc1O [SQ-29]
A (solubility is 20 mg/L or less.),665,–,O=C1C(=C2C(O)=CC(=[N+](c3ccc(Cl)cc3)c3cccc4ccccc34)C=C2O)C([O-])=C1c1c(O)cc(N(c2ccc(Cl)cc2)c2cccc3ccccc23)cc1O [SQ-74]
A (solubility is 20 mg/L or less.),670,–,O=C1C(=C2C(O)=CC(=[N+](c3cccc4ccccc34)c3cccc4ccccc34)C=C2O)C([O-])=C1c1c(O)cc(N(c2cccc3ccccc23)c2cccc3ccccc23)cc1O [SQ-77]
A (solubility is 20 mg/L or less.),690,–,O=C1C(=C2C(O)=CC(=[N+](c3ccccc3)c3ccc4ccccc4c3)C=C2O)C([O-])=C1c1c(O)cc(N(c2ccccc2)c2ccc3ccccc3c2)cc1O [SQ-96]
A (solubility is 20 mg/L or less.),690,–,CCOC1=CC(=[N+](c2ccccc2)c2cccc3ccccc23)C=CC1=C1C(=O)C(c2ccc(N(c3ccccc3)c3cccc4ccccc34)cc2OCC)=C1[O-] [SQ-101]
A (solubility is 20 mg/L or less.),695,–,O=C1C(=C2C(O)=CC(=[N+](c3ccccc3)c3cccc4ccccc34)c3ccccc32)C([O-])=C1c1c(O)cc(N(c2ccccc2)c2cccc3ccccc23)c2ccccc12 [SQ-104]
A (solubility is 20 mg/L or less.),685,–,O=C1C(=C2C=CC(=[N+](c3ccccc3-c3ccccc3)c3ccccc3[N+](=O)[O-])C=C2O)C([O-])=C1c1ccc(N(c2ccccc2-c2ccccc2)c2ccccc2[N+](=O)[O-])cc1O [SQ-108]
A (solubility is 20 mg/L or less.),675,–,O=C1C(=C2C=CC(=[N+](c3ccccc3-c3ccccc3)c3ccccc3-c3ccccc3)C=C2O)C([O-])=C1c1ccc(N(c2ccccc2-c2ccccc2)c2ccccc2-c2ccccc2)cc1O [SQ-110]
–,655,> 0.03,"CCCCN(CCCC)c1cc(O)c(C2=C([O-])C(=C3C(O)=CC(=[N+](CCCC)CCCC)C=C3O)C2=O)c(O)c1 [SQ-R1, reference compound]"

Structure (SMILES),Solubility [1],Maximum absorption wavelength [2] [nm],"solubility at 15 min ([1]; organic solvent or mixture, thermodynamic from solid) [mg/mL]"
Cc1ccc(N(c2ccc(C3=C([O-])C(=C4C=CC(=[N+](c5ccc(C)cc5)c5cccc6ccccc56)C=C4O)C3=O)c(O)c2)c2cccc3ccccc23)cc1 [SQ-2],B (solubility is more than 20 mg/L and 25 mg or less.),675,–
Cc1cccc(N(c2ccc(C3=C([O-])C(=C4C=CC(=[N+](c5cccc(C)c5)c5cccc6ccccc56)C=C4O)C3=O)c(O)c2)c2cccc3ccccc23)c1 [SQ-3],B (solubility is more than 20 mg/L and 25 mg or less.),675,–
Cc1ccccc1N(c1ccc(C2=C([O-])C(=C3C=CC(=[N+](c4ccccc4C)c4cccc5ccccc45)C=C3O)C2=O)c(O)c1)c1cccc2ccccc12 [SQ-4],B (solubility is more than 20 mg/L and 25 mg or less.),675,–
Cc1ccc(N(c2ccc(C3=C([O-])C(=C4C=CC(=[N+](c5ccc(C)cc5C)c5cccc6ccccc56)C=C4O)C3=O)c(O)c2)c2cccc3ccccc23)c(C)c1 [SQ-7],C (solubility is more than 25 mg/L and 30 mg or less.),680,–
CCc1ccc(N(c2ccc(C3=C([O-])C(=C4C=CC(=[N+](c5ccc(CC)cc5)c5cccc6ccccc56)C=C4O)C3=O)c(O)c2)c2cccc3ccccc23)cc1 [SQ-13],B (solubility is more than 20 mg/L and 25 mg or less.),675,–
CC(C)(C)c1ccc(N(c2ccc(C3=C([O-])C(=C4C=CC(=[N+](c5ccc(C(C)(C)C)cc5)c5cccc6ccccc56)C=C4O)C3=O)c(O)c2)c2cccc3ccccc23)cc1 [SQ-14],C (solubility is more than 25 mg/L and 30 mg or less.),670,–
CCOc1ccc(N(c2ccc(C3=C([O-])C(=C4C=CC(=[N+](c5ccc(OCC)cc5)c5cccc6ccccc56)C=C4O)C3=O)c(O)c2)c2cccc3ccccc23)cc1 [SQ-15],B (solubility is more than 20 mg/L and 25 mg or less.),680,–
O=C1C(=C2C=CC(=[N+](c3ccco3)c3cccc4ccccc34)C=C2O)C([O-])=C1c1ccc(N(c2ccco2)c2cccc3ccccc23)cc1O [SQ-25],B (solubility is more than 20 mg/L and 25 mg or less.),665,–
O=C1C(=C2C=CC(=[N+](c3ccccc3)c3cc(C(F)(F)F)cc(C(F)(F)F)c3)C=C2O)C([O-])=C1c1ccc(N(c2ccccc2)c2cc(C(F)(F)F)cc(C(F)(F)F)c2)cc1O [SQ-67],C (solubility is more than 25 mg/L and 30 mg or less.),675,–
